Test results taken from article PMC10111164, “Artemis inhibition as a therapeutic strategy for acute lymphoblastic leukemia” (Frontiers in Cell and Developmental Biology, 2023).

Legend:
[1] = test system: patient-derived B-ALL cells (BLQ5, LAX56 and LAX7R); test: Viability of B-ALL cells by annexin V/DAPI flow cytometry, day 3; type: cell-based, human; conditions: all three B-ALL cells (BLQ5, LAX56, LAX7R), 3 days
Experimental: (§1) Lentivirally green fluorescence protein (GFP) labeled patient-derived B-ALL cells (LAX56, BLQ5, LAX7R) or mature B cell lines 3301015 and 5680001 were plated on irradiated murine stromal OP9 cells and treated with four compounds optimized for Artemis inhibition (827171, 827032, 826941, 825226) (provided by Curia Global Inc., as part of the NCI NExT Program). These compounds ranged in KD binding affinity to Artemis from 20 to 150 nM. […] Proliferation was determined by measuring the green fluorescence intensity per image (9 images were captured per well) by Incucyte every 8 h for 3 days. Raw values were normalized to the zero-time DMSO control. On day 3, viability of the treated cells was determined by annexin V/DAPI staining via flow cytometry.
On day three, primary B-ALL cells were collected and used for flow cytometry analysis with PE Annexin V and DAPI to measure % viability (PE Annexin V-/DAPI-). The statistical analysis of viability differences is compared to DMSO control: ns: non-significant; *p < 0.05; **p < 0.001; ***p < 0.0001, one-way ANOVA.

[2] = test system: Normal mature B cell lines 3301015 and 5680001; test: Viability of normal mature B cell lines by annexin V/DAPI flow cytometry, day 3; type: cell-based, human; conditions: one or both B-cell lines, 1–20 μM, 3 days
Experimental: Normal mature human B cell lines, immortalized lymphoblastoid cell lines 3301015 and 5680001, were generated using EBV-transformation of peripheral blood from patients with no hematopoietic abnormalities.
as §1
FIGURE 4 Artemis inhibitors and DNA-PK inhibitors effect on viability of normal mature B cell lines. […] On day three, mature B cells were collected and used for flow cytometry analysis with PE Annexin V and DAPI to measure % viability (PE Annexin V-/DAPI-). The % viability (Ann V-/DAPI-) is depicted. […]

[3] = test system: Primary patient-derived B-ALL cells (BLQ5, LAX56, and LAX7R); test: Proliferation of GFP-labeled B-ALL cells on OP9 cells (Incucyte green fluorescence); type: cell-based, human
Experimental: as §1
Based on these viability studies, we next tested the compounds for their effect on proliferation. […] Ideally, normal B-cell lines would continue to proliferate upon Artemis inhibition and only B-ALL cell lines would be inhibited due to chromosome breaks. […] Increasing green fluorescence intensity is indicative of proliferation as measured by Incucyte every 8 h. […]
Primary B-ALL cells (BLQ5, LAX56, and LAX7R) were transduced with GFP, and 100,000 cells were plated in 24-well plates seeded with irradiated OP9 cells. […] Green fluorescence intensity was measured by Incucyte every 8 h. […]

[4] = test system: Mature B cell lines (3301015 and 5680001); test: Proliferation of GFP-labeled mature B cell lines on OP9 cells (Incucyte green fluorescence); type: cell-based, human
Experimental: as §1
Based on these viability studies, we next tested the compounds for their effect on proliferation. […] Ideally, normal B-cell lines would continue to proliferate upon Artemis inhibition and only B-ALL cell lines would be inhibited due to chromosome breaks. Primary patient-derived B-ALL cells (BLQ5, LAX56, and LAX7R) were transduced with GFP and 100,000 cells were plated in 24-well plates seeded with irradiated OP9 cells. Increasing green fluorescence intensity is indicative of proliferation as measured by Incucyte every 8 h. […] The mature B cell line proliferation is slow enough that it appears relatively flat in the proliferation assays, but the cells do increase in number (Supplementary Figure S2). Compared to B-ALL cells which grow as single cells (Supplementary Figure S3A–F), the mature B-cell lines grow in clusters and the measurement of total intensity per image is a potential caveat and may not capture this growth (Supplementary Figure S3G–J).
Mature B cell lines (3301015 and 5680001) were transduced with GFP, and 100,000 cells were plated in 24-well plates seeded with irradiated OP9 cells. […] Green fluorescence intensity was measured by Incucyte every 8 h. Raw values were normalized to the 0 h DMSO control. The dashed lines indicate the mean of the final time point measurements of the DMSO control for each mature B cell line.

[5] = target: T1, purified full-length human Artemis with DNA-PKcs (Homo sapiens, UniProt Q96SD1); test: Biochemical Artemis catalytic activity assay (FAM hairpin DNA cleavage, fluorescence)
T1 construct: Artemis activity assay was developed using full length Artemis with DNA-PKcs; made in house
T1 sequence (Q96SD1 whole entry): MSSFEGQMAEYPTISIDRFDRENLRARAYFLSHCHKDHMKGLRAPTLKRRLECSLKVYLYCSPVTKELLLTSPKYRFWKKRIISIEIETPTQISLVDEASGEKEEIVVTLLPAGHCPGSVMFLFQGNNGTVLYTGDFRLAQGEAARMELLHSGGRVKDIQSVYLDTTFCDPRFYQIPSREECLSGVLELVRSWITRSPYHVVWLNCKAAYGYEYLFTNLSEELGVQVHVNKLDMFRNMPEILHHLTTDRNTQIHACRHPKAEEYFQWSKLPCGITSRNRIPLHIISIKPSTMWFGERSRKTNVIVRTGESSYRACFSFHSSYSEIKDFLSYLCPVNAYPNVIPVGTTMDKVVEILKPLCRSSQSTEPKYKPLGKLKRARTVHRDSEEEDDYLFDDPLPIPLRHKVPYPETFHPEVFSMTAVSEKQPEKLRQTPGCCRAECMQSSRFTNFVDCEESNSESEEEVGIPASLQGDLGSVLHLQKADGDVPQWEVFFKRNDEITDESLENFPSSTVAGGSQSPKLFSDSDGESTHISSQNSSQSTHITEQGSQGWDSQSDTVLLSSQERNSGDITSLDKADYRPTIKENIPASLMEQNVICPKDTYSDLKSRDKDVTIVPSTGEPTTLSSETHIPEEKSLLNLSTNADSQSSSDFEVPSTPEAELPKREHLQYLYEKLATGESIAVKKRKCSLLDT
T1 sequence (P78527 whole entry partner): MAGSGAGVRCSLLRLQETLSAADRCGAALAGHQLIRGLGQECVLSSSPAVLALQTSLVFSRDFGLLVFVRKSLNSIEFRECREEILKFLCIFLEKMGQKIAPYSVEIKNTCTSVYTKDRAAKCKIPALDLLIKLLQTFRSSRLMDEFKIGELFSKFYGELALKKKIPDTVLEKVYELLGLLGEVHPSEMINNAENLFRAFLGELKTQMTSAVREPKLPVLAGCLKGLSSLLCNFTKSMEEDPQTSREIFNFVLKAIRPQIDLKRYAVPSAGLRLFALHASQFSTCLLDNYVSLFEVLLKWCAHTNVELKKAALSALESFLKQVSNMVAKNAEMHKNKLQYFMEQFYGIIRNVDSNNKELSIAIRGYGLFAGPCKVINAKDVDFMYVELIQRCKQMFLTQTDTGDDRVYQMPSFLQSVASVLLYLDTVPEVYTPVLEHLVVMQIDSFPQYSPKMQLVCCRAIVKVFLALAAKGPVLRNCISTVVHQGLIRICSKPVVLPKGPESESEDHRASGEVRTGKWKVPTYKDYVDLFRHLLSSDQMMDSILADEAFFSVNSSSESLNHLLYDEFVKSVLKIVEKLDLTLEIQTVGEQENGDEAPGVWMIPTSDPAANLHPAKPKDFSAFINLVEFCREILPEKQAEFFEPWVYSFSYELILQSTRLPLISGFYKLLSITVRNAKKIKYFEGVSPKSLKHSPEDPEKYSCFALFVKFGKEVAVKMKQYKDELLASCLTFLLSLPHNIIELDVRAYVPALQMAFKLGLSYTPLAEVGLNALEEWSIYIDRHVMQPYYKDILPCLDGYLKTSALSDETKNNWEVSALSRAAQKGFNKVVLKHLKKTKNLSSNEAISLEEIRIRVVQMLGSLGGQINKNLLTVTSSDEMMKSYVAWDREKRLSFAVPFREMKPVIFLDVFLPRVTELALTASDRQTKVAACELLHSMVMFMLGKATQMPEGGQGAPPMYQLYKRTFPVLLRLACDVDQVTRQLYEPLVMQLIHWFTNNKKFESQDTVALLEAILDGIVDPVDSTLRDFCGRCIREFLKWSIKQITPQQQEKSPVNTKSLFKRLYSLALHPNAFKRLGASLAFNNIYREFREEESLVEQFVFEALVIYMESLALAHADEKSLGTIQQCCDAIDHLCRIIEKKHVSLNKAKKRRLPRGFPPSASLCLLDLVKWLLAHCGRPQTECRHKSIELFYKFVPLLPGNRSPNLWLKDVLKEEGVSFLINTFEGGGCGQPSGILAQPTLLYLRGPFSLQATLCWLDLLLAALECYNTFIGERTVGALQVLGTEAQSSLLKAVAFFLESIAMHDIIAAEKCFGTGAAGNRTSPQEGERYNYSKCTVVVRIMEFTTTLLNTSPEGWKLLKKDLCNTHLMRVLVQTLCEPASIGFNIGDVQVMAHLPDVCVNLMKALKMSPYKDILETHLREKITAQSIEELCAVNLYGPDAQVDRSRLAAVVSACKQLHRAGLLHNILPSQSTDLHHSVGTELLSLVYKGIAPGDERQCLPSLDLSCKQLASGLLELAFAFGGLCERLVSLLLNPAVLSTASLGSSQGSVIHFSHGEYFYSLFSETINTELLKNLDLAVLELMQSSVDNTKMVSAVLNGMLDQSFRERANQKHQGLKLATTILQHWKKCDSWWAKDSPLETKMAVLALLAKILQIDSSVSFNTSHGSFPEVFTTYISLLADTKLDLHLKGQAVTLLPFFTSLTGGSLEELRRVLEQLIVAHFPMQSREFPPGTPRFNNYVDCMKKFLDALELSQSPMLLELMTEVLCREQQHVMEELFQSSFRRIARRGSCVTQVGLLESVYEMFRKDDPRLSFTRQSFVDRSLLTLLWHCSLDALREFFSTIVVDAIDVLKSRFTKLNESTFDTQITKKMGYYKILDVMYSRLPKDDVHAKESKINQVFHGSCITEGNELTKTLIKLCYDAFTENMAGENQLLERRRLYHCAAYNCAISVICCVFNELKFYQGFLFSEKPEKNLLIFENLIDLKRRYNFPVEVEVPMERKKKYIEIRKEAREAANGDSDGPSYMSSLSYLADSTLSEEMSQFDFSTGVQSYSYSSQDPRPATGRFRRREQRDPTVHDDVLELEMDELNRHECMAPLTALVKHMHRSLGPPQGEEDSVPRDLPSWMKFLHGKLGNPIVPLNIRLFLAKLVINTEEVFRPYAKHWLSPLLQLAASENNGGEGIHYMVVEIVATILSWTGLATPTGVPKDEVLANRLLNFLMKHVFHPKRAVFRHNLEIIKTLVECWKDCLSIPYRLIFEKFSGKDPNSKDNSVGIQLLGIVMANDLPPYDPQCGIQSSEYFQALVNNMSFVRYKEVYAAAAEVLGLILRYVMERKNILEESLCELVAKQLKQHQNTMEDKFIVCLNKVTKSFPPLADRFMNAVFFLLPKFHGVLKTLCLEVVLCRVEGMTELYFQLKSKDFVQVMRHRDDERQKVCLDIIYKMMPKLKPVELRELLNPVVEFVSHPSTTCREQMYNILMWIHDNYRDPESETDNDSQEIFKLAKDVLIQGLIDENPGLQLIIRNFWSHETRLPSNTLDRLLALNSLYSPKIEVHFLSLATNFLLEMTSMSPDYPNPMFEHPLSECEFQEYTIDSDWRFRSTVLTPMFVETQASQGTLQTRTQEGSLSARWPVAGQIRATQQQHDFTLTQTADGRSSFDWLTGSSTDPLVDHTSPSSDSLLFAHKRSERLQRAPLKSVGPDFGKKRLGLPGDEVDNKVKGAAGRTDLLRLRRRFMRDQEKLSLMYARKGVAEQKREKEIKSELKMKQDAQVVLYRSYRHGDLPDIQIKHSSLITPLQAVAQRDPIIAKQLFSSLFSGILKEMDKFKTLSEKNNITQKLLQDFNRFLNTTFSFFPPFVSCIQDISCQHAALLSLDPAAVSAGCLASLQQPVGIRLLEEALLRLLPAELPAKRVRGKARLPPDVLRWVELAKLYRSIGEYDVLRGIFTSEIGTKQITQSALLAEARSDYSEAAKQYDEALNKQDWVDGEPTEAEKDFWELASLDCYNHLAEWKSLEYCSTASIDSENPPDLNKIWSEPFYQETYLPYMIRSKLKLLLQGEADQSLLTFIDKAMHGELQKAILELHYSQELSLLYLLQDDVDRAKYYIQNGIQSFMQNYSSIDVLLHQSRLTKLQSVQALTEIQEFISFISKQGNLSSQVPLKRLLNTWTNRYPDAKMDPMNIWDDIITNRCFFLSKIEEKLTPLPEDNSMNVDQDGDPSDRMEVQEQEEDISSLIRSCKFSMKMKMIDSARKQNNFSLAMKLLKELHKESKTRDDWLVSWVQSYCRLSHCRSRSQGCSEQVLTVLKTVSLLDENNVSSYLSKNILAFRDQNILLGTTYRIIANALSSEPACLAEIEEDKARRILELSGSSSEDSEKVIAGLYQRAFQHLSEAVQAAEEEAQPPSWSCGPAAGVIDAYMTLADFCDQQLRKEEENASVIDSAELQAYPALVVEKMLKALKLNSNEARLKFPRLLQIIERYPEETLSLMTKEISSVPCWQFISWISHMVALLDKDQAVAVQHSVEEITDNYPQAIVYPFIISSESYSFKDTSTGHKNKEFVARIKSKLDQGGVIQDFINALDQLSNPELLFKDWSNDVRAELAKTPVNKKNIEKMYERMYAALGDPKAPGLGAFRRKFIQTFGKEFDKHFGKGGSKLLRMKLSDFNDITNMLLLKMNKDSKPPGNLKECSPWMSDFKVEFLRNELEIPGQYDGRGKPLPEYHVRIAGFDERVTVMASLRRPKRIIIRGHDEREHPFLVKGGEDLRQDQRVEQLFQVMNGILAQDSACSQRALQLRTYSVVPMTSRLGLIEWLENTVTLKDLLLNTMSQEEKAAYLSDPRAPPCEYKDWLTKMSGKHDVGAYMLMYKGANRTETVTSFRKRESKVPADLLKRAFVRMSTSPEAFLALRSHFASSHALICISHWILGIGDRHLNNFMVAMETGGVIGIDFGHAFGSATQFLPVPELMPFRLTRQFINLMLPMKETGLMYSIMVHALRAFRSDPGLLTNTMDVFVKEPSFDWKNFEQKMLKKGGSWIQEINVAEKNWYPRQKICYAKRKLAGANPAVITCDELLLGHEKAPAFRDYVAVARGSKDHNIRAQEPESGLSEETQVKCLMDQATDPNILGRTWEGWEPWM
Experimental: Artemis activity assay was developed using full length Artemis with DNA-PKcs to generate a fluorescent signal from the cleavage of the 5′ 6-FAM modified end of hairpin DNA with a black-hole quencher (3-BHQ) on the 3’ end. The assay buffer used was 25 mM MOPS, pH 7.5, 10 mM MgCl2, 10 mM KCl, 10 μM ATP, 1 mM DTT, 0.05% (w/v) CHAPS with 5 nM FL-Artemis, 5 nM DNA-PKcs, and 200 nM DNA FAM hairpin substrate. The fluorescence signal was monitored kinetically on a Perkin Elmer Envision microplate reader with FITC filters (λ ex = 485 nm, λ em = 520 nm) with 1-min reads for 40 min.
We determined the specificity of the four Artemis inhibiting compounds using a biochemical Artemis activity assay which generates a fluorescent signal from the cleavage of the 5′ 6-FAM modified end of hairpin DNA with a black-hole quencher (3-BHQ) on the 3’ end.
Steps 1, 2, and 3 show the fluorescence assay for cutting of the DNA hairpin substrate by Artems:DNA-Kcs. Artemis activity assay was optimized for development of a fluorescent signal from the cleavage of the 6-FAM modified end of hairpin DNA (to release it from proximity to the BHQ quenching) and monitored kinetically on a Perkin Elmer Envision microplate reader with FITC filters (excitation wavelength = 485 nm, emission wavelength = 520 nm). […]

SMILES | viability (PE Annexin V-/DAPI-) compared to DMSO controls [1] | viability (PE Annexin V-/DAPI-) [2] | proliferation (normalized green fluorescence intensity) vs DMSO ([3]; B-ALL cell lines, 5 μM and 10 μM) | proliferation of the three B-ALL lines (Discussion summary) ([3]; three B-ALL lines, 827171 at 1, 5, and 10 µM) | proliferation (normalized green fluorescence intensity) vs DMSO ([4]; 3301015, 5 μM and 10 µM) | proliferation (normalized green fluorescence intensity) vs DMSO [4]; 5680001 | proliferation (normalized green fluorescence intensity) vs DMSO ([4]; 5680001, 1 or 5 μM) | IC50 ([5]; 5 nM FL-Artemis, 5 nM DNA-PKcs, 200 nM DNA FAM hairpin substrate, 10 μM ATP, 10-point concentration response) | %Inh at Max ([5]; percent inhibition at maximal tested concentration)
Cc1cc2ncnn2cc1Nc1ncc2c(n1)n(C1CCOCC1)c(=O)n2C [AZD7648] | decrease in viability | decrease viability of one or both B-cell lines | inhibited the proliferation | little inhibition | suppressed proliferation | no significant decreases in proliferation | minor increase in proliferation | – | –
COc1ccc([C@@H](O)c2cc(-c3ncnc4cc(N5CCOCC5)ccc34)c(F)cc2Cl)nn1 [M3814] | – | – | – | – | – | – | – | 3 nM | 90.2%
